Experiments:
[1] = biological target: recombinant BACE enzyme (Homo sapiens, UniProt P56817); assay: BACE FRET assay (in vitro); assay type: biochemical; settings: concentration that reduces the activity of BACE to 50 %
Text: (§1) The tests performed were • a) Aβ1-40 (Sw) bioassay, which measures the amount of the amyoid peptide Aβ1-40 in the supernatant of Swedish APP695 transgenic HEK293 cells in the presence of the various BACE inhibitors via ELISA (enzyme-linked immunosorbent assay). In the table, the inhibitory concentration that reduces Aβ1-40 secretion to 50 % is indicated (IC50), or the % reduction of Aβ1-40 secretion at the indicated concentration. • b) FRET assay, which measures the activity of recombinant BACE enzyme in the presence of the various BACE inhibitors via a FRET (fluorescence resonance energy transfer)-based readout. In the table, the inhibitory concentration that reduces the activity of BACE to 50 % is indicated (IC50), or the % reduction of the activity of BACE at the indicated concentration. • c) An additional in silico test was performed for the compounds listed in Tables 1 to 3. The compounds were docked with the FFLD approach (Budin et al., Biol. Chem. 382, 1365-1372, 2001) and their binding energy was evaluated with the LIECE method (Huang and Caflisch, J. Med. Chem. 47, 5791-5797, 2004). The affinity evaluated with LIECE is in the low micromolar range for most of these compounds.

[2] = test system: Swedish APP695 transgenic HEK293 cells; assay: Aβ1-40 (Sw) bioassay (ELISA of Aβ1-40 in cell supernatant); assay type: cell-based; settings: for % reduction of Aβ1-40 secretion: Swedish APP695 transgenic HEK293 cells, ELISA; for IC50: Homo sapiens, HEK293, concentration that reduces Aβ1-40 secretion to 50 %, read-out: IC50 Aβ1-40(sw) bioassay (cell-based)
Text: as §1

Chain of recombinant BACE enzyme (P56817 46-501, species assumed): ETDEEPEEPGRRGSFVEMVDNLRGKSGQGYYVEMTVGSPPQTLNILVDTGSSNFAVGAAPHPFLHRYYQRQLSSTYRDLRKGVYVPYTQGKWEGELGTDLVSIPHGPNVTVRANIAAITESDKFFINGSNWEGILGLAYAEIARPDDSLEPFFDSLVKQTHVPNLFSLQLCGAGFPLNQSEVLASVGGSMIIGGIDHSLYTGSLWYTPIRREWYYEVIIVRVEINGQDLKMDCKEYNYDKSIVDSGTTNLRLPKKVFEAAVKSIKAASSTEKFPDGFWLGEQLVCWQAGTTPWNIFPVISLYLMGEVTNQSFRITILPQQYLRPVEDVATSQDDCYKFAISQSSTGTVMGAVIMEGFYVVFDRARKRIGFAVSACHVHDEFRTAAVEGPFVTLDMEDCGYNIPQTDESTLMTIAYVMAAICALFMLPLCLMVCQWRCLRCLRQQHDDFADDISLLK

Oc1c(Cl)cc(Cl)cc1/C=N/Nc1nc(Nc2ccccc2)nc(Nc2ccccc2)n1 [Compound 201C08]
IC50 [1]: 11.2 µM
% reduction of Aβ1-40 secretion ([2]; at 5 µM): 25% (5 µM)

Oc1c(I)cc(I)cc1/C=N/Nc1nc(Nc2ccccc2)nc(Nc2ccccc2)n1 [Compound 201G06]
IC50 [1]: 25.5 µM
% reduction of Aβ1-40 secretion ([2]; at 5 µM): No (5 µM)

Oc1c(Cl)cc(Br)cc1/C=N/Nc1nc(Nc2ccccc2)nc(Nc2ccccc2)n1 [Compound 201G11]
IC50 [1]: 11.9 µM
% reduction of Aβ1-40 secretion ([2]; at 5 µM): 26% (5 µM)

Oc1c(Br)cc(/C=N/Nc2nc(Nc3ccccc3)nc(Nc3ccccc3)n2)cc1Br [Compound 202E09]
IC50 [1]: 53.9 µM
% reduction of Aβ1-40 secretion ([2]; at 5 µM): 25% (5 µM)

Cc1ccc(C)c(Nc2nc(N/N=C/c3cc(Br)c(O)c(Br)c3O)nc(N3CCOCC3)n2)c1 [Compound 205A04]
IC50 [1]: 81.8 µM
% reduction of Aβ1-40 secretion ([2]; at 5 µM): No (5 µM)

Cc1ccc(Nc2nc(N/N=C/c3cc(Br)cc(Br)c3O)nc(N3CCOCC3)n2)cc1 [Compound 205C07]
IC50 [1]: 48.1 µM
% reduction of Aβ1-40 secretion ([2]; at 50 µM): No (50 µM)

Cc1ccc(Nc2nc(N/N=C/c3cc(Br)cc(Br)c3O)nc(N3CCOCC3)n2)cc1Cl [Compound 206E02]
IC50 [1]: 20.6 µM
% reduction of Aβ1-40 secretion ([2]; at 50 µM): 27% (50 µM)

O=C(O)c1cc(-c2ccc(/C=N/Nc3nc(Nc4ccccc4)nc(N4CCCCC4)n3)o2)ccc1Cl [Compound 250A05]
IC50 [1]: 142 µM
IC50 [2]: 10 to 20 µM

COc1ccc(Nc2nc(NN=Cc3ccc(-c4cccc(C(=O)O)c4)o3)nc(Nc3ccccc3)n2)cc1 [Compound 250B04]
IC50 [1]: 66.6 µM
IC50 [2]: 10 to 20 µM

O=C(O)c1cc(-c2ccc(C=NNc3nc(Nc4ccc(F)cc4)nc(N4CCCCC4)n3)o2)ccc1O [Compound 250B05]
IC50 [1]: 30.9 µM
IC50 [2]: 10 to 20 µM

O=C(O)c1cc(-c2ccc(C=NNc3nc(Nc4ccc(F)cc4)nc(N4CCOCC4)n3)o2)ccc1Cl [Compound 250C04]
IC50 [1]: 7.1 µM
% reduction of Aβ1-40 secretion ([2]; at 25 µM): 0 (25 µM)

Oc1c(Br)cc(Br)cc1/C=N/Nc1nc(Nc2ccccc2)nc(Nc2ccccc2)n1 [Compound 251A07]
IC50 [1]: 10.6 µM

COc1ccc(Nc2nc(N/N=C/c3cc(Br)cc(Br)c3O)nc(N3CCOCC3)n2)cc1 [Compound 251A09]
IC50 [1]: 34.4 µM

O=[N+]([O-])c1cc(-c2ccc(/C=N/Nc3nc(N4CCOCC4)nc(N4CCOCC4)n3)o2)ccc1Cl [Compound 251A10]
IC50 [1]: 124 µM

Oc1c(Br)cc(Br)cc1/C=N/Nc1nc(Nc2ccccc2)nc(N2CCCC2)n1 [Compound 251B07]
IC50 [1]: 45.4 µM

CNc1nc(N/N=C/c2ccc(-c3ccc([N+](=O)[O-])cc3)o2)nc(Nc2ccccc2)n1 [Compound 251C08]
IC50 [1]: 24.4 µM

Cc1ccc(Cl)cc1-c1ccc(/C=N/Nc2nc(N3CCOCC3)nc(N3CCOCC3)n2)o1 [Compound 251C10]
IC50 [1]: > 100 µM

Clc1ccccc1-c1ccc(/C=N/Nc2nc(Nc3ccccc3)nc(Nc3ccccc3)n2)o1 [Compound 251F09]
IC50 [1]: 188 µM

Oc1c(Br)cc(/C=N/Nc2nc(N3CCCCC3)nc(N3CCCCC3)n2)c(O)c1Br [Compound 251G09]
IC50 [1]: 170 µM
